{"source": "ChEMBL document CHEMBL4507260", "about": "(2021)", "key": {"[1]": {"target": "Beta-2 adrenergic receptor (Homo sapiens) (UniProt P07550)", "assay": "b 2 CEREP ligand profiling", "conditions": "Compound concentration 10.0 uM; call rule not given here"}, "[2]": {"target": "Gastrin/cholecystokinin type B receptor (Homo sapiens) (UniProt P32239)", "assay": "CCKB (CCK2) CEREP ligand profiling", "conditions": "Compound concentration 10.0 uM"}, "[3]": {"target": "Sodium-dependent dopamine transporter (Homo sapiens) (UniProt Q01959)", "assay": "DA transporter CEREP ligand profiling", "conditions": "Compound concentration 10.0 uM"}, "[4]": {"target": "Histamine H1 receptor (Homo sapiens) (UniProt P35367)", "assay": "H1 CEREP ligand profiling", "conditions": "Compound concentration 10.0 uM"}, "[5]": {"target": "Kappa-type opioid receptor (Homo sapiens) (UniProt P41145)", "assay": "kappa CEREP ligand profiling", "conditions": "Compound concentration 10.0 uM"}, "[6]": {"target": "Mu-type opioid receptor (Homo sapiens) (UniProt P35372)", "sequence (P35372 whole entry)": "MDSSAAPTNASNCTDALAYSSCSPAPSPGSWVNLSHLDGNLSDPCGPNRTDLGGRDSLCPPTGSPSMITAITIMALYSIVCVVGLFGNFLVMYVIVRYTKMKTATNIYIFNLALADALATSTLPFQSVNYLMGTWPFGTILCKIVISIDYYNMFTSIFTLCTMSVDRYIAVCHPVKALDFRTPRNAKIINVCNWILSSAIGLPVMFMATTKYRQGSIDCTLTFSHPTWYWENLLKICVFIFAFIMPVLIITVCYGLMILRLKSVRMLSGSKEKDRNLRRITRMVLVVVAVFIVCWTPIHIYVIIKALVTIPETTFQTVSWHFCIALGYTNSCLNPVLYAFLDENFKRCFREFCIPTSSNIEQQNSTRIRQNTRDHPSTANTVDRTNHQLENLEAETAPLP", "assay": "mu CEREP ligand profiling", "conditions": "Compound concentration 10.0 uM"}, "[7]": {"target": "5-hydroxytryptamine receptor 1A (Homo sapiens) (UniProt P08908)", "assay": "5-HT1A CEREP ligand profiling", "conditions": "Compound concentration 10.0 uM"}, "[8]": {"target": "5-hydroxytryptamine receptor 5A (Homo sapiens) (UniProt P47898)", "assay": "5-HT5A CEREP ligand profiling", "conditions": "Compound concentration 10.0 uM"}, "[9]": {"target": "Voltage-gated L-type calcium channel (Ca2+ channel) (Homo sapiens, UniProt O60840+Q01668+Q13698+Q13936)", "assay": "Ca2+ channel CEREP ligand profiling", "type": "protein assay", "conditions": "compound concentration 10 uM"}, "[10]": {"target": "Beta-1 adrenergic receptor (Homo sapiens) (UniProt P08588)", "conditions": "Compound concentration 10.0 uM", "description": "b 1 CEREP ligand profiling"}, "[11]": {"target": "Sodium-dependent noradrenaline transporter (Homo sapiens) (UniProt P23975)", "conditions": "Compound concentration 10.0 uM", "description": "NE transporter CEREP ligand profiling"}, "[12]": {"target": "GABA-A receptor; anion channel (Homo sapiens) (UniProt P14867+P47870+P18507+P28472+P48169+Q99928+Q9UN88+P34903+O00591+O14764+Q8N1C3+P18505+P78334+P47869+P31644+Q16445)", "conditions": "Compound concentration 10.0 uM", "description": "BZD (central) CEREP ligand profiling"}, "[13]": {"target": "Bombesin receptor (Homo sapiens) (UniProt P28336+P32247+P30550)", "sequence (P28336 whole entry, looked up)": "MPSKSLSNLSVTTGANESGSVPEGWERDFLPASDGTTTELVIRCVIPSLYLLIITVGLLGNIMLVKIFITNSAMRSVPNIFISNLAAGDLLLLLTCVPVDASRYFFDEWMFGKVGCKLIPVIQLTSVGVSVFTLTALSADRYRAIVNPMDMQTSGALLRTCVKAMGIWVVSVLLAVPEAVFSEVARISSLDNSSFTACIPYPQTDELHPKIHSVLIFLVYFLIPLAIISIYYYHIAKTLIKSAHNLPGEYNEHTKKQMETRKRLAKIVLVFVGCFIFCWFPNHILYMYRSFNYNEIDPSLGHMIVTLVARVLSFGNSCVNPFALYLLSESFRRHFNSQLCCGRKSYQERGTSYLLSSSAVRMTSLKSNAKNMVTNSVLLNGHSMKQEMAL", "sequence (P30550 whole entry, looked up)": "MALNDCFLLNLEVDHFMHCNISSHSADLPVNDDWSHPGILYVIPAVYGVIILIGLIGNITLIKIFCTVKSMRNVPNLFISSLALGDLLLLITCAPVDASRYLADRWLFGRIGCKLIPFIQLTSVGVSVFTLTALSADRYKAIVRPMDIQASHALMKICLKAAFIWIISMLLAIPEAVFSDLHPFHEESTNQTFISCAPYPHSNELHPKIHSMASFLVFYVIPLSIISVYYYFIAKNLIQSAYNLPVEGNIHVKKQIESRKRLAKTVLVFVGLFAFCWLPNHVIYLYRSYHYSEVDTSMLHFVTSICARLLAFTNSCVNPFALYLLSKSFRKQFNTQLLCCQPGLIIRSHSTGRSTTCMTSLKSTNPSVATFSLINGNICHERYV", "sequence (P32247 whole entry, looked up)": "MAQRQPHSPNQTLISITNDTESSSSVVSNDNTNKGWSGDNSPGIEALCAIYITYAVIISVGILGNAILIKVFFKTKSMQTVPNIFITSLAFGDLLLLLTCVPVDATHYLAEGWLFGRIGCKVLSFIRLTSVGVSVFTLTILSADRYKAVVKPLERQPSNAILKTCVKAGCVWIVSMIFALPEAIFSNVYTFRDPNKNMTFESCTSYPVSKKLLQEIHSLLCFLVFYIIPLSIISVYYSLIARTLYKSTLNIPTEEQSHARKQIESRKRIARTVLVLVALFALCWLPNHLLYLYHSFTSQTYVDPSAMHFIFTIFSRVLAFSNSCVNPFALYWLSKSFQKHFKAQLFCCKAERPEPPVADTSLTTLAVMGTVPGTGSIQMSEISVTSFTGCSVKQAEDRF", "conditions": "Compound concentration 10.0 uM", "description": "Bombesin CEREP ligand profiling"}, "[14]": {"target": "B2 bradykinin receptor (Homo sapiens) (UniProt P30411)", "conditions": "Compound concentration 10.0 uM", "description": "B2 CEREP ligand profiling"}, "[15]": {"target": "Cannabinoid receptor 2 (Homo sapiens) (UniProt P34972)", "conditions": "Compound concentration 10.0 uM", "description": "CB2 CEREP ligand profiling"}, "[16]": {"target": "D(2) dopamine receptor (Homo sapiens) (UniProt P14416)", "conditions": "Compound concentration 10.0 uM", "description": "D2 CEREP ligand profiling"}, "[17]": {"target": "D(3) dopamine receptor (Homo sapiens) (UniProt P35462)", "sequence (P35462 whole entry)": "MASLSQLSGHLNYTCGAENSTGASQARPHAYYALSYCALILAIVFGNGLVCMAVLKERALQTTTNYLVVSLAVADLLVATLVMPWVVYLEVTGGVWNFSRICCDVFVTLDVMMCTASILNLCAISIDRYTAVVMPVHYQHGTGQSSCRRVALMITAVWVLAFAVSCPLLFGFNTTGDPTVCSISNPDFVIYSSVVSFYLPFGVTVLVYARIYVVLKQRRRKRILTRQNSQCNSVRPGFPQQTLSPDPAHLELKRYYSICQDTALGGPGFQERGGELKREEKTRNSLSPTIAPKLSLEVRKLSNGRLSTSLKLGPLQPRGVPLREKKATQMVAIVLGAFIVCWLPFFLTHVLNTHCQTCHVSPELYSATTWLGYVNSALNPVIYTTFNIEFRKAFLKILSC", "conditions": "Compound concentration 10.0 uM", "description": "D3 CEREP ligand profiling"}, "[18]": {"target": "D(4) dopamine receptor (Homo sapiens) (UniProt P21917)", "conditions": "Compound concentration 10.0 uM", "description": "D4 CEREP ligand profiling"}, "[19]": {"target": "D(1B) dopamine receptor (Homo sapiens) (UniProt P21918)", "conditions": "Compound concentration 10.0 uM", "description": "D5 CEREP ligand profiling"}, "[20]": {"target": "Galanin receptor type 1 (Homo sapiens) (UniProt P47211)", "sequence (P47211 whole entry)": "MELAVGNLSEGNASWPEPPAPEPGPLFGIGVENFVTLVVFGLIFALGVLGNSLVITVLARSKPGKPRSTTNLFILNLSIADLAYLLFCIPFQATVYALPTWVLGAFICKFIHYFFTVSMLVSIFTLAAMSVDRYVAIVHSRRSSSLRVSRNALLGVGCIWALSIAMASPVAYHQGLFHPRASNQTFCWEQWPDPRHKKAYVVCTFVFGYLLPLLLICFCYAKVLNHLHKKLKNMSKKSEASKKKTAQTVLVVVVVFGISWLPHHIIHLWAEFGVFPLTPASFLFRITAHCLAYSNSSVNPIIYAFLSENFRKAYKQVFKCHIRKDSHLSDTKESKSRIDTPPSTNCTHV", "conditions": "Compound concentration 10.0 uM", "description": "GAL1 CEREP ligand profiling"}, "[21]": {"target": "C-C chemokine receptor type 1 (Homo sapiens) (UniProt P32246)", "conditions": "Compound concentration 10.0 uM", "description": "CCR1 CEREP ligand profiling"}, "[22]": {"target": "Muscarinic acetylcholine receptor M3 (Homo sapiens) (UniProt P20309)", "conditions": "Compound concentration 10.0 uM", "description": "M3 CEREP ligand profiling"}, "[23]": {"target": "Muscarinic acetylcholine receptor M5 (Homo sapiens) (UniProt P08912)", "conditions": "Compound concentration 10.0 uM", "description": "M5 CEREP ligand profiling"}, "[24]": {"target": "Substance-P receptor (Homo sapiens) (UniProt P25103)", "conditions": "Compound concentration 10.0 uM", "description": "NK1 CEREP ligand profiling"}, "[25]": {"target": "Neuropeptide Y receptor type 1 (Homo sapiens) (UniProt P25929)", "sequence (P25929 whole entry)": "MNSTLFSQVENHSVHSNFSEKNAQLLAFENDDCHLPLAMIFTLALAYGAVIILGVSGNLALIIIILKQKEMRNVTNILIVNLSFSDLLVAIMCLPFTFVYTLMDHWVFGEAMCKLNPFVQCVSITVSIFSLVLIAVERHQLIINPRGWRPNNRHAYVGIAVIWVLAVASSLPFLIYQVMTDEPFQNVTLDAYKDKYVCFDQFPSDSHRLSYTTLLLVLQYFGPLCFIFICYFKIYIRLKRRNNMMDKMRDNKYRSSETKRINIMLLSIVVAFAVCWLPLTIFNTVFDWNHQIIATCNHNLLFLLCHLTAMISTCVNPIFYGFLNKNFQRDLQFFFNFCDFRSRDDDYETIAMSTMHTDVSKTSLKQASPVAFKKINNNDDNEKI", "conditions": "Compound concentration 10.0 uM", "description": "Y1 CEREP ligand profiling"}, "[26]": {"target": "Neuropeptide Y receptor type 2 (Homo sapiens) (UniProt P49146)", "conditions": "Compound concentration 10.0 uM", "description": "Y2 CEREP ligand profiling"}, "[27]": {"target": "Neurotensin receptor type 1 (Homo sapiens) (UniProt P30989)", "conditions": "Compound concentration 10.0 uM", "description": "NT1 (NTS1) CEREP ligand profiling"}, "[28]": {"target": "Pituitary adenylate cyclase-activating polypeptide type I receptor (Homo sapiens) (UniProt P41586)", "sequence (P41586 21-468 limits assumed)": "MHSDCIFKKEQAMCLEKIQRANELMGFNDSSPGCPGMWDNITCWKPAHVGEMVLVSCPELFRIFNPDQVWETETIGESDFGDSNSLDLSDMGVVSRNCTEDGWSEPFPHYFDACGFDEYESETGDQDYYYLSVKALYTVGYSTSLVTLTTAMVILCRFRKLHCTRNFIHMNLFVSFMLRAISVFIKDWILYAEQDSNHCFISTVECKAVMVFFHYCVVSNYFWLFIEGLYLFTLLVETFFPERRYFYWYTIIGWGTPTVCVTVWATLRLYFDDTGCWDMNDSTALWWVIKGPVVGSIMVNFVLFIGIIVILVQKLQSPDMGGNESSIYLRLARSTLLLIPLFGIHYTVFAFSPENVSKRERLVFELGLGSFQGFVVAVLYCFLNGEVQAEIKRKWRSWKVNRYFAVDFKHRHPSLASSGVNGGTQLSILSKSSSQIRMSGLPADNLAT", "conditions": "Compound concentration 10.0 uM", "description": "PACAP CEREP ligand profiling"}, "[29]": {"target": "Thromboxane A2 receptor (Homo sapiens) (UniProt P21731)", "conditions": "Compound concentration 10.0 uM", "description": "TXA2/PGH2 CEREP ligand profiling"}, "[30]": {"target": "Prostacyclin receptor (Homo sapiens) (UniProt P43119)", "conditions": "Compound concentration 10.0 uM", "description": "PGI2 CEREP ligand profiling"}, "[31]": {"target": "5-hydroxytryptamine receptor 1B (Homo sapiens) (UniProt P28222)", "conditions": "Compound concentration 10.0 uM", "description": "5-HT1B CEREP ligand profiling"}, "[32]": {"target": "Somatostatin receptor (Homo sapiens) (UniProt P35346+P30874+P31391+P30872+P32745)", "conditions": "Compound concentration 10.0 uM", "description": "Somatostatin CEREP ligand profiling"}, "[33]": {"target": "Vasopressin V1a receptor (Homo sapiens) (UniProt P37288)", "sequence (P37288 whole entry, looked up)": "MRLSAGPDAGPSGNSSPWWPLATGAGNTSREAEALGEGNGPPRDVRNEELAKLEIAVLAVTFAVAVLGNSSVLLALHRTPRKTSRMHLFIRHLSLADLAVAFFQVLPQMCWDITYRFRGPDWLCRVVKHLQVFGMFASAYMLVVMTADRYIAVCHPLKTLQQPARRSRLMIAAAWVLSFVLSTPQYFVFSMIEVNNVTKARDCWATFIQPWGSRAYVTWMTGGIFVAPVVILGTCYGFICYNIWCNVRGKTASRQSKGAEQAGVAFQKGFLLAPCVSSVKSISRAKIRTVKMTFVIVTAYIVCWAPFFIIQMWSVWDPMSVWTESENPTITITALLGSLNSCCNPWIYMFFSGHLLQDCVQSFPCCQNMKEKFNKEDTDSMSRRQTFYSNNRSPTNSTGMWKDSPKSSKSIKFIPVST", "conditions": "Compound concentration 10.0 uM", "description": "V1A CEREP ligand profiling"}, "[34]": {"target": "Calcium-activated potassium channel (Homo sapiens) (UniProt Q92952+Q9UGI6+Q12791+O15554+Q9H2S1+A8MYU2)", "conditions": "Compound concentration 10.0 uM", "description": "SK+Ca channel CEREP ligand profiling"}, "[35]": {"target": "Melatonin receptor type 1A (Homo sapiens) (UniProt P48039)", "assay": "ML1 CEREP ligand profiling", "conditions": "Compound concentration 10.0 uM"}, "D(4) dopamine receptor": {"target": "T1, D(4) dopamine receptor (Homo sapiens, UniProt P21917)", "T1 sequence (P21917 whole entry)": "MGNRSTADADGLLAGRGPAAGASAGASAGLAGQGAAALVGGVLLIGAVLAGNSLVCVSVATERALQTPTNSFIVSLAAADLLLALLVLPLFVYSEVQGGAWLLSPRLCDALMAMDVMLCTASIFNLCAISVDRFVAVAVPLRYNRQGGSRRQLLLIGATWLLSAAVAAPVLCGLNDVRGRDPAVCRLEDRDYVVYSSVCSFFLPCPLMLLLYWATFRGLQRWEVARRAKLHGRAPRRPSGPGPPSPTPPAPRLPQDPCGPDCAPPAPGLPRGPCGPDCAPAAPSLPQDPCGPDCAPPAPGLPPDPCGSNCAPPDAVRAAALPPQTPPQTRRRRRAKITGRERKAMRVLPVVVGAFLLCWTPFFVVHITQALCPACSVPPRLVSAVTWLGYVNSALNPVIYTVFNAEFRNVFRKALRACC", "assay": "Cellular FLIPR (fluorometric imaging plate reader) assay"}, "[36]": {"system": "Epidermal growth factor receptor (Homo sapiens), P00533 [G719C]", "conditions": "Compound concentration 1000.0 nM"}, "[37]": {"target": "Phosphorylase b kinase regulatory subunit alpha, liver isoform (Homo sapiens) (UniProt P46019)", "sequence (P46019 whole entry, canonical isoform)": "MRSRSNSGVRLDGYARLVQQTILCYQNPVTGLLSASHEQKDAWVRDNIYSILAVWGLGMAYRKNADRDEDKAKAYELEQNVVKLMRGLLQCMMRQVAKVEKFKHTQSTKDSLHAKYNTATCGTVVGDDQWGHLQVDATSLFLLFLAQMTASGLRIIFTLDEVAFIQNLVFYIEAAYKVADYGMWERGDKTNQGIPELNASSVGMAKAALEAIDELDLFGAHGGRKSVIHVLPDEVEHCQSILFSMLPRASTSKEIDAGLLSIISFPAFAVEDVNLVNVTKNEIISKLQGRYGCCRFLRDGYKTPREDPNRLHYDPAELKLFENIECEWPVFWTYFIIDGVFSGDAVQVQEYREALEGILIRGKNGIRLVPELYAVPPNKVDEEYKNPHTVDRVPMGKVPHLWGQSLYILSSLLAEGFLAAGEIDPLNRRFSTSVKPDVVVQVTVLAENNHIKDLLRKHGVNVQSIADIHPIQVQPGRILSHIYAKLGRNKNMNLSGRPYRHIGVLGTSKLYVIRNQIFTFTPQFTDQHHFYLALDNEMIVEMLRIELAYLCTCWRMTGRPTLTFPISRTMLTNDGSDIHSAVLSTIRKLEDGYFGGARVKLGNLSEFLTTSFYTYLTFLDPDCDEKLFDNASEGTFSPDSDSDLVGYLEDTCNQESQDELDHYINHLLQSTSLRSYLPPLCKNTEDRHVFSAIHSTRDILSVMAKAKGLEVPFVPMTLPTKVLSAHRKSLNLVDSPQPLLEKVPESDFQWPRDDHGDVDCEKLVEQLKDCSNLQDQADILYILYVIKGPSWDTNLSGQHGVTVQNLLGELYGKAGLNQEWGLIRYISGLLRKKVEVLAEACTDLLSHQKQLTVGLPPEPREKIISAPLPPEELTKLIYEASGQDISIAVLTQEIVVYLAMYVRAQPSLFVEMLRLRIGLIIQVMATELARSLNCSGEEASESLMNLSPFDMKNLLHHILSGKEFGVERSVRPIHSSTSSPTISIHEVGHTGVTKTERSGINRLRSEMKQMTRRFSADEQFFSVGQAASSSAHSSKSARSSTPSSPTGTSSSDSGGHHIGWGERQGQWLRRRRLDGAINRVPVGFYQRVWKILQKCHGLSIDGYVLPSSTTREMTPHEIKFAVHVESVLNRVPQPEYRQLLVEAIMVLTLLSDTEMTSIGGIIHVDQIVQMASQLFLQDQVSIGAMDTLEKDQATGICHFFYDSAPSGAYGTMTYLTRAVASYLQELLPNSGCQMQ", "conditions": "Compound concentration 1000.0 nM"}}}
{"smiles": "c1ccc(N2CCN(Cc3nc4ccccc4[nH]3)CC2)nc1", "note": "[ABT-724]", "values": [{"measurement": "inhibition", "setting": "[1]", "result": 13, "unit": "%"}, {"measurement": "inhibition", "setting": "[2]", "result": 17, "unit": "%"}, {"measurement": "inhibition", "setting": "[3]", "result": 11, "unit": "%"}, {"measurement": "inhibition", "setting": "[4]", "result": 17, "unit": "%"}, {"measurement": "inhibition", "setting": "[5]", "result": 68, "unit": "%"}, {"measurement": "inhibition", "setting": "[6]", "result": 51, "unit": "%"}, {"measurement": "inhibition", "setting": "[7]", "result": 73, "unit": "%"}, {"measurement": "inhibition", "setting": "[8]", "result": 21, "unit": "%"}, {"measurement": "inhibition at 10 µM", "setting": "[9]", "result": "< 10% (not active)"}, {"measurement": "inhibition", "setting": "[10]", "result": "< 10", "unit": "%"}, {"measurement": "inhibition", "setting": "[11]", "result": "< 10", "unit": "%"}, {"measurement": "inhibition", "setting": "[12]", "result": "< 10", "unit": "%"}, {"measurement": "inhibition", "setting": "[13]", "result": "< 10", "unit": "%"}, {"measurement": "inhibition", "setting": "[14]", "result": "< 10", "unit": "%"}, {"measurement": "inhibition", "setting": "[15]", "result": "< 10", "unit": "%"}, {"measurement": "inhibition", "setting": "[16]", "result": "< 10", "unit": "%"}, {"measurement": "inhibition", "setting": "[17]", "result": "< 10", "unit": "%"}, {"measurement": "inhibition", "setting": "[18]", "result": 99, "unit": "%"}, {"measurement": "inhibition", "setting": "[19]", "result": "< 10", "unit": "%"}, {"measurement": "inhibition", "setting": "[20]", "result": "< 10", "unit": "%"}, {"measurement": "inhibition", "setting": "[21]", "result": "< 10", "unit": "%"}, {"measurement": "inhibition", "setting": "[22]", "result": "< 10", "unit": "%"}, {"measurement": "inhibition", "setting": "[23]", "result": "< 10", "unit": "%"}, {"measurement": "inhibition", "setting": "[24]", "result": "< 10", "unit": "%"}, {"measurement": "inhibition", "setting": "[25]", "result": "< 10", "unit": "%"}, {"measurement": "inhibition", "setting": "[26]", "result": "< 10", "unit": "%"}, {"measurement": "inhibition", "setting": "[27]", "result": "< 10", "unit": "%"}, {"measurement": "inhibition", "setting": "[28]", "result": "< 10", "unit": "%"}, {"measurement": "inhibition", "setting": "[29]", "result": "< 10", "unit": "%"}, {"measurement": "inhibition", "setting": "[30]", "result": "< 10", "unit": "%"}, {"measurement": "inhibition", "setting": "[31]", "result": "< 10", "unit": "%"}, {"measurement": "inhibition", "setting": "[32]", "result": "< 10", "unit": "%"}, {"measurement": "inhibition", "setting": "[33]", "result": "< 10", "unit": "%"}, {"measurement": "inhibition", "setting": "[34]", "result": "< 10", "unit": "%"}, {"measurement": "inhibition", "setting": "[35]", "result": 51, "unit": "%"}]}
{"smiles": "CSc1cccnc1N1CCN(Cc2nc3ccccc3[nH]2)CC1", "note": "[A-769]", "values": [{"measurement": "IC50", "setting": "D(4) dopamine receptor", "result": "> 10 µM (not active)"}, {"measurement": "residual activity", "setting": "[36]", "result": 96, "unit": "%"}, {"measurement": "residual activity", "setting": "[37]", "result": 100, "unit": "%"}]}
